Reference: patent publication US20240261434A1, “PRODUCTS AND METHODS FOR TREATING MUSCULAR DYSTROPHY” (priority 2020, published 2024)

Columns and labels:
Assay type in all cases: in vivo, mouse
Dup2 mice [1] = test: Evans blue dye (EBD) positive fibers after exhaustive treadmill exercise in Dup2 mice; details: adult Dup2 mice, tail vein
Procedure: (§1) To induce muscle injury for Evans blue dye (EBD) analysis, a treadmill exercise program was used. In the first week, four month old mice were trained three times on a treadmill at 10° inclination, running as follows: 0 m/min for 2 min, 5 m/min for 5 min, 10 m/min for 15 min, and 12 m/min for 5-10 min. In the following three weeks (3×/week), mice ran on the treadmill at 2 m/min for 30 min. Before mice euthanasia, the treadmill was used at the same inclination at 5 m/min for 5 min. Following this initial warming up, the speed was increased to +1 m/min until exhaustion. EBD solution (10 mg/ml in PBS) was filtered and injected intraperitoneally (IP) into mice after the last treadmill exercise, and mice were sacrificed 24 hrs later. For analysis, muscle sections were stained with α-laminin to distinguish myofibers, and the percentage of positive Evans blue fibers (labeled in red) were then quantified using ImageJ software. For quantification of centronucleation, H&E staining was performed using standard technique, and fiber counting was performed manually using ImageJ. For both analyses, three sections were processed and counted for each animal.
(§2) H&E staining was performed using standard protocol. Quantification of both centronucleation and Evans blue dye (EBD) was performed manually using ImageJ. Three sections were processed and counted for each animal.

DMD exon 2 = test: RT-PCR quantification of DMD exon 2 skipping (Dup2, WT, Del2 transcripts) in muscles of Dup2 mice; details: adult Dup2 mice, tail vein, 3 months post-injection
Procedure: Total RNA was isolated from tissue samples and analyzed by reverse transcription (RT) followed by PCR. […] For each sample, 1 μg of total RNA was used to generate cDNA by RT-PCR using random hexamer primers according to the manufacturer's protocol (Thermo Scientific, Ferk1672) and then used for a single PCR of 35 cycles using 1 μg of RNA and a mixture of random hexamer and oligo(dT) for each RT reaction. mRNA was then amplified via primers specific to the DMD 5′UTR and the exon 3-4 junction as follows.
Following electrophoresis, PCR products were electrophoresed on a 2% agarose gel and imaged using a Gel Logic 200 Imaging System (Kodak). Quantification of Dup2, WT or Del2 transcript was performed using ImageJ (an open source platform for scientific image analysis), and each band plotted in Prism (GraphPad) as a percentage of the overall dystrophin transcript. The images were then used to quantify the relative amount of each transcript using ImageJ software 14. Using the “Gel” function of ImageJ, a box was drawn in each lane around the area where the three possible transcripts would be. A histogram of each sample was then generated and the area under the curve was measured. The sum of the area under the three peaks were added together and then individual peak area was measured as a percentage of the total.

[2] = test system: tibialis anterior (TA) muscle; test: Force generation and protection from eccentric contractions, tibialis anterior of Dup2 mice; parameters: Eccentric contraction: % force decrease: scale not given here; details: tail vein adult Dup2 mice
Procedure: Physiologic studies were conducted on TA muscles from 12 week old mice that had been treated with an intramuscular injection of 3.1×10^11 vg at 8 weeks (N≥5 limbs). For systemic studies, the mice were 20-21 weeks old following 12 weeks of treatment (N≥12 limbs). The force study procedure was conducted using a modified version of Hakim's procedure (Hakim et al., J Appl. Physiol. (1985) 2011; 110:1656-1663; Wein et al., Nat. Med. 2014; 20:992-1000). Initial anesthetization of mice was conducted by giving an intraperitoneal injection of a cocktail containing five times their weight (i.e., the weight of the mouse) of 25 mg/mL ketamine and twice their weight of 2.5 mg/ml xylazine. […]
The resting force was set to between 3-4 g for a 10 minute equilibrium period. The TA muscle was then stimulated at the optimal length (Lo, mm) and active tetanic muscle force was recorded to give the absolute force measurement using the Lab View-based DMC program (Aurora Scientific). […] The cross-sectional area measured as mass (g)/(muscle density×ratio of fiber length×Lo) where muscle density is 1.06 mg/mm^3 and the ratio of fiber length in the TA is 0.6 (Burkholder et al., J Morphol 1994; 221:177-190). […] Statistical significance was assessed using a Kruskal-Wallace test assuming nonparametric data in the GraphPad Prism (version 6.03 for Windows, GraphPad Software, San Diego California USA). […]

utrophin = test: Western blot quantification of utrophin in muscles of Dup2 mice; details: adult Dup2 mice, tail vein, 3 months post-injection
Procedure: (§3) 150 μl of this lysis buffer was used for 100 mg of tissue. This solution was then put on ice for 30min, and then tissue was lysed using a metal bead (1 min at 30 Hz, TissueLyser II, Qiagen). These last two steps were repeated, and then the lysate was centrifuged at 14000 g for 20min at 4° C. The supernatant was mixed with a classical 4× Laemmli buffer and boiled for 5 min at 100° C. 50-150 μg of protein were run on a precast 3-8% Tris-Acetate gel (NuPage, Life Science) for 16 h at 80V (4° C.). Using a nitrocellulose membrane, gels were transferred overnight at 300 mA using a cooling device. […] All antibodies were diluted in half Odyssey blocking buffer (Licor®) and half Tris buffered saline with Tween (TBST) (Sigma-Aldrich). Following secondary incubation, 5×5 min with 0.1% Tween washes were performed followed by a ddH2O rincing. Both IRDye@ signals were simultaneously scanned using the Odyssey® CLx (LI-COR). The signals for both dystrophin, utrophin and α-actinin were quantified using ImageJ.

[3] = qPCR quantification of viral vector genomes (biodistribution) in muscles of Dup2 mice; details: adult Dup2 mice, tail vein, 3 months post-injection
Procedure: Physical titer determination was determined based on degradation of non-encapsidated DNA following digestion of viral capsids. Released encapsidated DNA was quantified by qPCR to determine the DNAase Resistant Particle (DRP) titer. The DRP titer (also referred to as vector genomes [vg]) were determined for scAAV9.U7.ACCA or scAAV1.U7-ACCA products using real-time quantitative PCR (qPCR) using dilutions of a linearized plasmid standard containing U7 amplicon as assay standards. The DRP quantitative PCR (qPCR) assay involves serial dilution of the test sample (10^−2 to 10^−5) and sequential digestion with DNase I and Proteinase K, followed by qPCR analysis. DNA detection was accomplished using sequence specific primers targeting a primer/probe combination specific to the construct sequence (probe: 5′-[…]-3′ (SEQ ID NO: 4); Fw primer: 5′-agctcctatgttgttaTCTAGAG-3′ (SEQ ID NO: 5); Rv primer: 5′-[…]-3′ (SEQ ID NO: 6)) and amplified using a fluorescently tagged probe hybridizing to the U7 amplicon. Titration of the encapsidated viral genome were performed using quantitative PCR-based titration method runned on a Prism 7500 Taqman detector system (PE Applied Biosystems).
All tissues and organs for qPCR/Biodistribution studies were placed into sterile tubes, snap-frozen in liquid nitrogen, and kept at <−70° C. qPCR analyses were performed on samples at 1, 3 and 6 months post-injection. 300 ul DNA lysis buffer (0.05M Tris-HCl pH 8, 0.1M NaCl, 0.1M EDTA, 1% SDS) plus 7.5 ul proteinase K were added to sections and incubated at 55° C. overnight. DNA was quantified and 25 ng of DNA was run in triplicate. The same qPCR primers and probe used for vector titration were used to perform the tissue biodistribution qPCR studies. Data were represented as normalized copy number per 1 ug DNA.

Dup2 mice [4] = test: Quantification of centronucleation of myofibers (H&E) in Dup2 mice; details: adult Dup2 mice, tail vein, 3 months post-injection
Procedure: as §1, §2

dystrophin = test: Western blot / immunoblot quantification of dystrophin in muscles of Dup2 mice; details: for Western blot quantification: % of dystrophin: percent of WT, adult Dup2 mice, tail vein, 3 months post-injection
Procedure: as §3
With some experiments, 25×40 μm thick sections of cryopreserved tissues were used for western blotting to quantify amount of restored dystrophin protein. Extracted protein was run on 3-8% Tris-Acetate protein gels and visualized using specific primary antibodies against dystrophin or α-actinin the corresponding Licor secondary antibodies IRDye 680 or IRDye 800 (as set out above). Blots were imaged using the Licor Odyssey CLx and quantified using ImageJ.
Steel beads were added to the tissue, which was homogenized using the Tissuelyser II (Qiagen) for 2 min at a rate of 30/sec. Lysates were then incubated on ice and spun down; the supernatant was removed and stored at −80═ C. until immunoblotting, and the cell debris was discarded. For immunoblotting, 50 μg C57BL/6 muscle tissue protein or 150 μg Dup2 muscle tissue protein was loaded with a loading dye (1× laemmli) on a 3-8% Tris Acetate gel (Life Technologies, EA0378BOX). […] The membrane was scanned on the Odyssey CLx and imaged using Image Studio 14. Single color channel images were using Image Studio and then imported into ImageJ for quantification. For each channel, a box was drawn in each lane around the protein band using the “Gel” function in ImageJ. A histogram of each sample was then generated and the area under the curve was measured. Dystrophin was normalized to α-actinin by dividing the area of the dystrophin band by the area of the α-actinin band for each sample. If the same sample was run on multiple immunoblots, the median was taken to represent that particular sample. The C57BL/6 measurement was determined by taking the mean of all wild type samples. Both treated Dup2 and control Dup2 measurements were reported as a percentage of the wild type (n≥3).

Compound: C[C@H]1C[C@@H]2[C@H]([C@@H](O)C[C@@]3(C)[C@H]2CC[C@]3(O)C(=O)COC(=O)CCC(=O)[O-])[C@@]2(C)C=CC(=O)C=C12.[Na+] [PDN, 6α-methylprednisolone 21-hemisuccinate sodium salt]
- % of EBD positive fibers (Dup2 mice [1]; DIA): 12.31%
- % of EBD positive fibers (Dup2 mice [1]; GAS): 3.04%
- % of EBD positive fibers (Dup2 mice [1]; TA): 8.14%
- % of EBD positive fibers (Dup2 mice [1]; TRI): 2.57%
- RT-PCR quantification: % of Del2 transcript (DMD exon 2; DIA): 0%
- RT-PCR quantification: % of Dup2 transcript (DMD exon 2; DIA): 97.7%
- RT-PCR quantification: % of WT transcript (DMD exon 2; DIA): 2.3%
- RT-PCR quantification: % of Del2 transcript (DMD exon 2; GAS): 4.3%
- RT-PCR quantification: % of Dup2 transcript (DMD exon 2; GAS): 86%
- RT-PCR quantification: % of WT transcript (DMD exon 2; GAS): 9.6%
- RT-PCR quantification: % of Del2 transcript (DMD exon 2; HEART): 0%
- RT-PCR quantification: % of Dup2 transcript (DMD exon 2; HEART): 98.3%
- RT-PCR quantification: % of WT transcript (DMD exon 2; HEART): 1.6%
- RT-PCR quantification: % of Del2 transcript (DMD exon 2; TA): 0%
- RT-PCR quantification: % of Dup2 transcript (DMD exon 2; TA): 100%
- RT-PCR quantification: % of WT transcript (DMD exon 2; TA): 0%
- RT-PCR quantification: % of Del2 transcript (DMD exon 2; TRI): 0%
- RT-PCR quantification: % of Dup2 transcript (DMD exon 2; TRI): 98.3%
- RT-PCR quantification: % of WT transcript (DMD exon 2; TRI): 1.7%
- Absolute force: Force (mN) [2]: 1401 mN
- Eccentric contraction: % force decrease ([2]; repeated eccentric contractions): 0.52
- Western blot quantification: ratio of utrophin/a-actinin (utrophin; DIA): 0.6
- Western blot quantification: ratio of utrophin/a-actinin (utrophin; GAS): 0.2
- Western blot quantification: ratio of utrophin/a-actinin (utrophin; HEART): 0.5
- Western blot quantification: ratio of utrophin/a-actinin (utrophin; TA): 0.3
- Western blot quantification: ratio of utrophin/a-actinin (utrophin; TRI): 0.4
- viral vector genome quantification ([3]; DIA): 17 vector/ug DNA
- viral vector genome quantification ([3]; GAS): 15 vector/ug DNA
- viral vector genome quantification ([3]; HEART): 188 vector/ug DNA
- viral vector genome quantification ([3]; TA): 39 vector/ug DNA
- viral vector genome quantification ([3]; TRI): 50 vector/ug DNA
- % of centronucleation (Dup2 mice [4]; DIA): 68.55%
- % of centronucleation (Dup2 mice [4]; TA): 71.12%
- Western blot quantification: % of dystrophin (dystrophin; DIA): 9.2%
- dystrophin expression (dystrophin; Dup2 mice, PDN alone): does not induce dystrophin expression
- Western blot quantification: % of dystrophin (dystrophin; GAS): 2.1%
- Western blot quantification: % of dystrophin (dystrophin; HEART): 13.7%
- Western blot quantification: % of dystrophin (dystrophin; TA): 4.83%
- Western blot quantification: % of dystrophin (dystrophin; TRI): 4.8%
